In brackets after ≈: the same amount, converted by molar mass.
Legend:
Type in all cases: cell-based
[1] = test system: Enterococcus faecalis CL5244, VanB; test: MIC susceptibility test; settings: Enterococcus faecalis CL5244, VanB; for MIC: read-out: MIC CL5244
In short: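 MTT-based broth microdilution in cation-adjusted Mueller-Hinton broth; two-fold 12-step dilutions […], inoculum 10^6 CFU/mL, 37° C for 24 h.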

[2] = test system: gentamicin, streptmycin, vancomycin resistant Enterococcus faecalis (ATCC 51299); test: microbe, parasite or virus in culture; settings: for MIC: Enterococcus faecalis, ATCC51299, read-out: MIC VREF; for MIC VREF: Enterococcus faecalis ATCC51299, vancomycin resistance
In short: (§1)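 Broth microdilution in cation-adjusted Mueller-Hinton broth, 12-step two-fold series from 5 μg/mL to […], mixed 1:1 with 10^6 CFU/mL cell suspension and incubated 24 h at 37 °C. MTT (1 mg/mL solution) is then added for 30 min (S. aureus, MRSA) or 2 h (E. faecalis strains). MIC = lowest concentration inhibiting growth.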

[3] = test system: Enterococcus faecium CL5137, VanA; test: MIC susceptibility test; settings: Enterococcus faecium CL5137, VanA; for MIC: read-out: MIC CL5137
[4] = test system: Bacillus cereus (ATCC 11778); test: MIC susceptibility test, microdilution with MTT readout; settings: for MIC: Bacillus cereus, ATCC11778, read-out: MIC BC; for MIC BC: Bacillus ceres ATCC11778
In short: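 Bacillus cereus ATCC® 11778 susceptibility was measured by broth microdilution in 96-well microplates using Cation Adjusted Mueller-Hinton broth. Samples were diluted two-fold from 5 μg/mL over 12 steps. Each well combined 100 μL of cell suspension (10^6 CFU/mL) with 100 μL of antibiotic solution and was incubated at 37° C. for 24 h. Then 50 μL of MTT (1 mg/mL) was added for 30 min, and MIC (μg/mL) was read as the lowest concentration inhibiting growth.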

[5] = test system: Enterococcus faecalis (ATCC 29212); test: as above; settings: Enterococcus faecalis ATCC29212; for MIC: read-out: MIC EF
In short: as §1

[6] = test system: Staphylococcus aureus (ATCC 29213); test: as above; settings: Staphylococcus aureus ATCC29213; for MIC: read-out: MIC SA
In short: as §1

[7] = test system: Methicillin resistant Staphylococcus aureus (ATCC 33591); test: as above; settings: Staphylococcus aureus ATCC3359, Methicillin resistance; for MIC: ATCC 3359 / ATCC 33591 / MRSA, read-out: MIC MRSA
In short: as §1

| SMILES | MIC [1] [mg/L] | MIC [2] [mg/L] | MIC [3] [mg/L] | MIC [4] [mg/L] | MIC [5] [mg/L] | MIC [6] [mg/L] | MIC [7] [mg/L] | MIC CL5244 [1] [mg/L] | MIC VREF [2] [mg/L] | MIC CL5137 [3] | MIC BC [4] [mg/L] | MIC EF [5] [mg/L] | MIC SA [6] [mg/L] | MIC MRSA [7] [mg/L] |
| --- | --- | --- | --- | --- | --- | --- | --- | --- | --- | --- | --- | --- | --- | --- |
| CN[C@@H](CC(C)C)C(=O)N[C@H]1C(=O)N[C@@H](CC(N)=O)C(=O)N[C@H]2C(=O)NC3C(=O)N[C@H](C(=O)N[C@@H](C(=O)O)c4cc(O)cc(O)c4-c4cc3ccc4O)[C@H](O)c3ccc(c(Cl)c3)Oc3cc2cc(c3OC2OC(COS(=O)(=O)c3c(C)cc(C)cc3C)C(O)C(O)C2OC2CC(C)(NCc3ccc(-c4ccc(Cl)cc4)cc3)C(O)C(C)O2)Oc2ccc(cc2Cl)[C@H]1O (stereo partly shown) [XLII, N-4-(4-Chlorophenyl)benzylvancosamine-glucose-C6-2-mesitylenesulfonated Vancomycin] | 0.8 (≈ 0.437 µM) | 1.9 (≈ 1.04 µM) | 6.3 (≈ 3.44 µM) | 1.9 (≈ 1.04 µM) | 1 (≈ 0.546 µM) | > 5 | > 5 |  |  |  |  |  |  |  |
| CN[C@@H](CC(C)C)C(=O)N[C@H]1C(=O)N[C@@H](CC(N)=O)C(=O)N[C@H]2C(=O)NC3C(=O)N[C@H](C(=O)N[C@@H](C(=O)O)c4cc(O)cc(O)c4-c4cc3ccc4O)[C@H](O)c3ccc(c(Cl)c3)Oc3cc2cc(c3OC2OC(CNN)C(O)C(O)C2OC2CC(C)(N)C(O)C(C)O2)Oc2ccc(cc2Cl)[C@H]1O (stereo partly shown) [XLIV, Glucose-C6-hydrazine Vancomycin] | 50 (≈ 34.2 µM) | 2.5 (≈ 1.71 µM) | > 50 | 1.3 (≈ 0.888 µM) | 1.3 (≈ 0.888 µM) | 0.63 (≈ 0.431 µM) | 1.3 (≈ 0.888 µM) |  |  |  |  |  |  |  |
| CCCCCCCCCCNC1(C)CC(OC2C(Oc3c4cc5cc3Oc3ccc(cc3Cl)C(O)C3NC(=O)C(NC(=O)C5NC(=O)C(CC(N)=O)NC(=O)C(NC(=O)C(CC(C)C)NC)C(O)c5ccc(c(Cl)c5)O4)c4ccc(O)c(c4)-c4c(O)cc(O)cc4C(C(=O)O)NC3=O)OC(CNCc3ccc(-c4ccc(Cl)cc4)o3)C(O)C2O)OC(C)C1O (stereo not shown) [XLIX, Glucose-C6-N-5-(4-chlorophenyl)furan-1-methylene-vancosamine-N-decyl Vancomycin] |  |  |  |  |  |  |  | 0.8 (≈ 0.45 µM) | 1.3 (≈ 0.731 µM) | 13 µg/mL (≈ 7.31 µM) | 3.8 (≈ 2.14 µM) | 1.9 (≈ 1.07 µM) | 5.0 (≈ 2.81 µM) | 2.5 (≈ 1.41 µM) |
| CN[C@@H](CC(C)C)C(=O)N[C@H]1C(=O)N[C@@H](CC(N)=O)C(=O)N[C@H]2C(=O)NC3C(=O)N[C@H](C(=O)N[C@@H](C(=O)O)c4cc(O)cc(O)c4-c4cc3ccc4O)[C@H](O)c3ccc(c(Cl)c3)Oc3cc2cc(c3OC2OC(CN=[N+]=[N-])C(O)C(O)C2OC2CC(C)(N)C(O)C(C)O2)Oc2ccc(cc2Cl)[C@H]1O (stereo partly shown) [XLVI, Glucose-C6-azide Vancomycin] | 25 (≈ 17 µM) | 2.5 (≈ 1.7 µM) | > 50 | 1 (≈ 0.678 µM) | 1.3 (≈ 0.882 µM) | 0.63 (≈ 0.427 µM) | 1.3 (≈ 0.882 µM) |  |  |  |  |  |  |  |
| CNC(CC(C)C)C(=O)NC1C(=O)NC(CC(N)=O)C(=O)NC2C(=O)NC3C(=O)NC(C(=O)NC(C(=O)O)c4cc(O)cc(O)c4-c4cc3ccc4O)C(O)c3ccc(c(Cl)c3)Oc3cc2cc(c3OC2OC(CN)C(O)C(O)C2OC2CC(C)(N)C(O)C(C)O2)Oc2ccc(cc2Cl)C1O (stereo not shown) [XLVII, Glucose-C6-amine Vancomycin] |  |  |  |  |  |  |  | 25 (≈ 17.3 µM) | 1 (≈ 0.69 µM) | 50< μg/mL | 1.0 (≈ 0.69 µM) | 1.9 (≈ 1.31 µM) | 0.63 (≈ 0.435 µM) | 0.32 (≈ 0.221 µM) |
| CNC(CC(C)C)C(=O)NC1C(=O)NC(CC(N)=O)C(=O)NC2C(=O)NC3C(=O)NC(C(=O)NC(C(=O)O)c4cc(O)cc(O)c4-c4cc3ccc4O)C(O)c3ccc(c(Cl)c3)Oc3cc2cc(c3OC2OC(CNCc3ccc(-c4ccc(Cl)cc4)cc3)C(O)C(O)C2OC2CC(C)(N)C(O)C(C)O2)Oc2ccc(cc2Cl)C1O (stereo not shown) [XXIX, Glucose-C6-N-4-(4-chlorophenyl)benzyl Vancomycin] |  |  |  |  |  |  |  | 0.6 (≈ 0.364 µM) | 0.63 (≈ 0.382 µM) | 50 µg/mL (≈ 30.3 µM) | 0.63 (≈ 0.382 µM) | 0.63 (≈ 0.382 µM) | 0.63 (≈ 0.382 µM) | 0.63 (≈ 0.382 µM) |
| CNC(CC(C)C)C(=O)NC1C(=O)NC(CC(N)=O)C(=O)NC2C(=O)NC3C(=O)NC(C(=O)NC(C(=O)O)c4cc(O)cc(O)c4-c4cc3ccc4O)C(O)c3ccc(c(Cl)c3)Oc3cc2cc(c3OC2OC(CNCc3ccc(-c4ccc(Cl)cc4)o3)C(O)C(O)C2OC2CC(C)(N)C(O)C(C)O2)Oc2ccc(cc2Cl)C1O (stereo not shown) [XXX, Glucose-C6-N-5-(4-chlorophenyl)furan-1-methylene Vancomycin] |  |  |  |  |  |  |  | 1.6 (≈ 0.976 µM) | 0.63 (≈ 0.384 µM) | 50< μg/mL | 0.63 (≈ 0.384 µM) | 0.63 (≈ 0.384 µM) | 0.32 (≈ 0.195 µM) | 0.32 (≈ 0.195 µM) |
| CN[C@@H](CC(C)C)C(=O)N[C@H]1C(=O)N[C@@H](CC(N)=O)C(=O)N[C@H]2C(=O)NC3C(=O)N[C@H](C(=O)N[C@@H](C(=O)O)c4cc(O)cc(O)c4-c4cc3ccc4O)[C@H](O)c3ccc(c(Cl)c3)Oc3cc2cc(c3OC2OC(CNCc3cc(Cl)ccc3O)C(O)C(O)C2OC2CC(C)(N)C(O)C(C)O2)Oc2ccc(cc2Cl)[C@H]1O (stereo partly shown) [XXXIX, Glucose-C6-5-chloro-2-hydroxy-benzylamine Vancomycin] | 25 (≈ 15.7 µM) | > 5 | > 50 | 1.3 (≈ 0.818 µM) | 2.5 (≈ 1.57 µM) | 1.3 (≈ 0.818 µM) | 1.3 (≈ 0.818 µM) |  |  |  |  |  |  |  |
| CNC(CC(C)C)C(=O)NC1C(=O)NC(CC(N)=O)C(=O)NC2C(=O)NC3C(=O)NC(C(=O)NC(C(=O)O)c4cc(O)cc(O)c4-c4cc3ccc4O)C(O)c3ccc(c(Cl)c3)Oc3cc2cc(c3OC2OC(CNC(=O)c3cnc4ccccc4n3)C(O)C(O)C2OC2CC(C)(N)C(O)C(C)O2)Oc2ccc(cc2Cl)C1O (stereo not shown) [XXXVII, Glucose-C6-N-2-quinoxaloyl Vancomycin] |  |  |  |  |  |  |  | 1.6 (≈ 0.997 µM) | 0.32 (≈ 0.199 µM) | 50< μg/mL | 0.32 (≈ 0.199 µM) | 0.32 (≈ 0.199 µM) | 0.32 (≈ 0.199 µM) | 0.63 (≈ 0.393 µM) |
| CNC(CC(C)C)C(=O)NC1C(=O)NC(CC(N)=O)C(=O)NC2C(=O)NC3C(=O)NC(C(=O)NC(C(=O)O)c4cc(O)cc(O)c4-c4cc3ccc4O)C(O)c3ccc(c(Cl)c3)Oc3cc2cc(c3OC2OC(CNC(=O)c3ccc(-c4ccc(Cl)cc4)cc3)C(O)C(O)C2OC2CC(C)(N)C(O)C(C)O2)Oc2ccc(cc2Cl)C1O (stereo not shown) [XXXVIII, Glucose-C6-N-4-(4-chlorophenyl)benzoyl Vancomycin] |  |  |  |  |  |  |  | 0.4 (≈ 0.241 µM) | 0.16 (≈ 0.0962 µM) | 50< μg/mL | 0.32 (≈ 0.192 µM) | 0.32 (≈ 0.192 µM) | 1.0 (≈ 0.601 µM) | 0.63 (≈ 0.379 µM) |

Source: patent publication US6710168B1, “Glycopeptide antibiotics, combinatorial libraries of glycopeptide antibiotics and methods of producing same” (The Trustees of the University of Princeton, priority 1999, dated 2004)
